Experimental data reported in EP4796530A1 (Biocells (Beijing) Biotech Co., Ltd., priority 2023, dated 2025).
Read-outs that look alike come from different tables or passages of the source.

What was measured:
NLRP3 [1] = target: T1, NLRP3 (Mus musculus, UniProt Q8R4B8); assay: Inhibition of canonical NLRP3 activation (LPS+ATP/Nig) in J774A.1 cells, IL-1β release by ELISA, single concentration; assay type: cell-based; set-up: The mouse macrophage cell line J774A.1 was used, and LPS was used as the first signal; host or cells: J774A.1 mouse monocyte-macrophage cell line
Description: J774A.1 cells were plated in a 48-well plate at a density of 1.0×10^6 cells/mL, with 300 µL per well. Subsequently, NLRP3 was activated using LPS+5 mM ATP (adenosine triphosphate) or 10 µM Nig (nigericin). […] ATP was purchased from Sigma, Cat. No.: L2654. Nig was purchased from Shanghai Yuanye Bio-Technology Co., Ltd., Cat. No.: S45490.
Experimental groups: a negative control group, an LPS-alone incubation control group, an LPS+ATP or +Nig positive control group, and an example compound experimental group.
After the plated J774A.1 cells adhering to the plate, the culture medium was replaced. For all the groups except the negative control group, the culture medium was completely replaced with cell culture medium containing 1 µg/mL LPS. The negative control group received cell culture medium. Then, all the groups were incubated overnight. 18 h later, the culture medium was replaced again. The culture medium of the example compound experimental group was completely replaced with cell culture medium containing the compounds; while the negative control group, the LPS-alone incubation control group, and the LPS+ATP/Nig positive control group received cell culture medium. 1 h later, the culture mediums of the LPS+ATP/Nig positive control group and the example compound experimental group were completely replaced with cell culture medium containing 5 mM ATP or 10 µM Nig. 1 h later, the cell supernatants were collected for IL-1β detection.
Therefore, the relative change in the amount of IL-1β release may directly reflect NLRP3 inhibitory effect.

NLRP3 [2] = target: T1, NLRP3; assay: Inhibition of APOE peptide-induced NLRP3 activation in J774A.1 cells, IL-1β release; assay type: cell-based; set-up: The mouse macrophage cell line J774A.1 was used, and LPS was used as the first signal; host or cells: J774A.1 mouse monocyte-macrophage cell line; settings: J774.A1, 10 µM compound, 30 µg/mL APOE peptide
Description: J774A.1 cells were plated in a 48-well plate at a density of 1.0×10^6 cells/mL, with 300 µL per well. Subsequently, NLRP3 was activated by APOE peptide. The cell culture medium comprises: DMEM (brand: Gibco, Cat. No.: C12430500) + 10% fetal bovine serum (brand: Gibco, Cat. No.: 10099-141) + 1% sodium pyruvate (brand: Gibco, Cat. No.: 11360-070) + 1% penicillin-streptomycin solution (brand: Solarbio, Cat. No.: P1400). The J774A.1 mouse monocyte-macrophage cell line was purchased from the Cell Resource Center of the Institute of Basic Medical Sciences of Chinese Academy of Medical Sciences (Resource No. 1101MOU-PUMC000222). APOE2/3 peptide 1-151 was obtained through recombinant protein expression and purification by Biocells (Beijing) Biotech Co., Ltd. The procedures were as follows: the sequence (SEQ ID NO: 1) shown below was inserted into the pET-28A plasmid and transformed into BL-21(DE3) expression strain; the expression of target protein was induced with IPTG at a low temperature; after collecting the bacteria via centrifugation, ultrasonic disruption was performed; and after centrifugation, the supernatant was purified by nickel ion affinity chromatography (AKTA pure), and then the product was concentrated by ultrafiltration and identified by BCA+protein electrophoresis. Sequence: [formula]
Experimental groups: a negative control group, an APOE treatment control group, and an example compound experimental group.
After the plated J774A.1 cells adhering to the plate, the culture medium was replaced. The culture medium of the APOE treatment control group was replaced with cell culture medium containing 30 µg/mL APOE peptide, the culture medium of the example compound experimental group was replaced with culture medium containing 30 µg/mL APOE peptide combined with the compounds, and the negative control group received cell culture medium. Then, all the groups were incubated overnight. 18 h later, the cell supernatants were collected for IL-1β detection.
Activation of NLRP3 by APOE peptide will result in release of mature IL-1β, and the release can be inhibited by NLRP3 inhibitors. Therefore, the relative change in the amount of IL-1β release may directly reflect NLRP3 inhibitory effect.
In this experimental example, effective inhibition refers to a reduction of 70% or more in the release amount, compared with the release amount of the positive control minus the negative control.

[3] = Mouse pharmacokinetics after intravenous administration (plasma and brain, LC-MS); assay type: in vivo; settings: C57 mice, intravenous 5 mg/kg
Description: C57 mice were administered intravenously, at a dosage concentration of 5 mg/kg in each group. Retro-orbital blood collection was performed on the mice at 1 min, 30 min, 1 h, and 2 h post-dosing. The collected blood was centrifuged at 3000 rpm for 10 min at 4 °C to obtain plasma. Acetonitrile was added at a 1:3 volume ratio of plasma: acetonitrile to precipitate proteins. After centrifugation, the supernatant was collected and filtered. The concentration of the compound was detected using LC-MS (Agilent 1260-G6125, SIM mode). In addition, 2 h after drug injection, the mice were subjected to cardiac perfusion and then their brains were harvested. Following tissue homogenization and centrifugation, the supernatant was collected. Acetonitrile was added at a 1:3 volume ratio of supernatant: acetonitrile to precipitate proteins. After centrifugation, the supernatant was collected and filtered. The concentration of the compound was detected using LC-MS (Agilent 1260-G6125, SIM mode).
Experimental groups: a vehicle control group, and a dosing group.

[4] = J774.A1, 1 µM compound, LPS + 5 mM ATP or 10 µM Nig, compared with the positive control, read-out: inhibition of IL-1β release

T1 sequence (Q8R4B8 whole entry): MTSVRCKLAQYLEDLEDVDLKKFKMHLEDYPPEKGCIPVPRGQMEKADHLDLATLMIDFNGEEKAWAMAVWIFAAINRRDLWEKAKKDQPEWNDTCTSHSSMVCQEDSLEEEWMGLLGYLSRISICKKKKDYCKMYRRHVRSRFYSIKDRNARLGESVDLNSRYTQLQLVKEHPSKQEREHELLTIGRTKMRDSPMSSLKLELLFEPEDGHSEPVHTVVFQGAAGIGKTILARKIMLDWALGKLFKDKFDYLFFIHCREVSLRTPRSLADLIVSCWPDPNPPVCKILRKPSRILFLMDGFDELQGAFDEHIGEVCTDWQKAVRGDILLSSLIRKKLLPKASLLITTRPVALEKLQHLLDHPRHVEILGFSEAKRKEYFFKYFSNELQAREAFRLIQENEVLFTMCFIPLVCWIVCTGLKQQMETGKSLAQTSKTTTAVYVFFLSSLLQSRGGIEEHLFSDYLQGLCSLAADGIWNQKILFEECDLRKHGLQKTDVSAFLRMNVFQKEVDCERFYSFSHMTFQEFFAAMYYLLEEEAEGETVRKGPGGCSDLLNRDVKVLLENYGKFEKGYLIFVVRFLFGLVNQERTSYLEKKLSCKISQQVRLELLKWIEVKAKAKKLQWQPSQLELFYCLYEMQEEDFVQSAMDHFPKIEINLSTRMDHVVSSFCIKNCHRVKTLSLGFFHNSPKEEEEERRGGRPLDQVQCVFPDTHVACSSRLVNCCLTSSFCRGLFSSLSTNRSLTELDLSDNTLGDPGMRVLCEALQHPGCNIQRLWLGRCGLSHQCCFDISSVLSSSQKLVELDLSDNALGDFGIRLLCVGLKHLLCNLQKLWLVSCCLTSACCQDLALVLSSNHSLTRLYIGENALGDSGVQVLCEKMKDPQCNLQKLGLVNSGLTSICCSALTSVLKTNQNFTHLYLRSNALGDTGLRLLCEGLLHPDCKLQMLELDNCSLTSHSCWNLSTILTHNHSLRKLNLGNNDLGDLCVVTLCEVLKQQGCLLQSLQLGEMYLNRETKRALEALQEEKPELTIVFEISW

Which inhibition at 1 µM (NLRP3 [1]; [4]) does the source give for CN(C)Cc1ccc(F)c(S(=O)(=O)NC(=O)Nc2c3c(cc4c2CCC4)CCC3)c1 [Example 2, 5-((dimethylamino)methyl)-2-fluoro-N-((1,2,3,5,6,7-hexahydro-s-indacen-4-yl)carbamoyl)benzenesulfonamide] here?
The inhibition at 1 µM was > 80%.

For CN(C)Cc1cc(S(=O)(=O)NC(=O)Nc2c3c(cc4c2CCC4)CCC3)ccc1OCc1ccccc1 [Example 4], which inhibition at 1 µM (NLRP3 [1]; J774.A1, read-out: inhibition of IL-1β release, 1 µM compound, LPS + 5 mM ATP or 10 µM Nig, compared with the positive control) is on record?
The inhibition at 1 µM was > 80%.

With CN(C)Cc1cc(S(=O)(=O)NC(=O)Nc2c3c(cc4c2CCC4)CCC3)ccc1F [Example 6, 3-((dimethylamino)methyl)-4-fluoro-N-((1,2,3,5,6,7-hexahydro-s-indacen-4-yl)carbamoyl)benzenesulfonamide] as the molecule, how does the inhibition at 1 µM (NLRP3 [1]; [4]) read?
Its inhibition at 1 µM is > 80%.

For CN(C)Cc1cc(S(=O)(=O)NC(=O)Nc2c3c(cc4c2CCC4)CCC3)ccc1N [Example 7, 4-amino-3-((dimethylamino)methyl)-N-((1,2,3,5,6,7-hexahydro-s-indacen-4-yl)carbamoyl)benzenesulfonamide], which inhibition at 1 µM (NLRP3 [1]; [4]) is on record?
Its inhibition at 1 µM is > 80%.

For CN(C)Cc1cc(S(=O)(=O)NC(=O)Nc2c3c(cc4c2CCC4)CCC3)ccc1Cl [Example 8, 4-chloro-3-((dimethylamino)methyl)-N-((1,2,3,5,6,7-hexahydro-s-indacen-4-yl)carbamoyl)benzenesulfonamide], which inhibition at 1 µM (NLRP3 [1]; [4]) is on record?
Its inhibition at 1 µM is 20 to 80%.

Which inhibition at 1 µM (NLRP3 [1]; [4]) does the source give for CN(C)Cc1cc(S(=O)(=O)NC(=O)Nc2c3c(cc4c2CCC4)CCC3)ccc1OC(F)(F)F [Example 9, 3-((dimethylamino)methyl)-N-((1,2,3,5,6,7-hexahydro-s-indacen-4-yl)carbamoyl)-4-(trifluoromethoxy)benzenesulfonamide] here?
The inhibition at 1 µM was 20 to 80%.

With CN(C)Cc1ccc(Cl)c(S(=O)(=O)NC(=O)Nc2c3c(cc4c2CCC4)CCC3)c1 [Example 10, 2-chloro-5-((dimethylamino)methyl)-N-((1,2,3,5,6,7-hexahydro-s-indacen-4-yl)carbamoyl)benzenesulfonamide] as the molecule, how does the inhibition at 1 µM (NLRP3 [1]; [4]) read?
The inhibition at 1 µM was > 80%.

Which inhibition at 1 µM (NLRP3 [1]; [4]) does the source give for CN(C)Cc1ccc([N+](=O)[O-])c(S(=O)(=O)NC(=O)Nc2c3c(cc4c2CCC4)CCC3)c1 [Example 11, 5-((dimethylamino)methyl)-N-((1,2,3,5,6,7-hexahydro-s-indacen-4-yl)carbamoyl)-2-nitrobenzenesulfonamide] here?
The inhibition at 1 µM was > 80%.

With CN(C)Cc1ccc(N)c(S(=O)(=O)NC(=O)Nc2c3c(cc4c2CCC4)CCC3)c1 [Example 12, 2-amino-5-((dimethylamino)methyl)-N-((1,2,3,5,6,7-hexahydro-s-indacen-4-yl)carbamoyl)benzenesulfonamide] as the molecule, how does the inhibition at 1 µM (NLRP3 [1]; [4]) read?
The inhibition at 1 µM was 20 to 80%.

With CCN(CC)Cc1cc(S(=O)(=O)NC(=O)Nc2c3c(cc4c2CCC4)CCC3)ccc1OC [Example 13] as the molecule, how does the “inhibition of IL-1β release” value (NLRP3 [1]; 1 µM compound, LPS + 5 mM ATP or 10 µM Nig, compared with the positive control) read?
Its value is “no inhibitory effect”.

Which results are given for CCOc1ccc(S(=O)(=O)NC(=O)Nc2c3c(cc4c2CCC4)CCC3)cc1CN(C)C [Example 14, 3-((dimethylamino)methyl)-4-ethoxy-N-((1,2,3,5,6,7-hexahydro-s-indacen-4-yl)carbamoyl)benzenesulfonamide]?
inhibition at 10 µM (NLRP3 [2]): ≥ 70%; inhibition at 1 µM (NLRP3 [1]; [4]): > 80%

With CC(C)Oc1ccc(S(=O)(=O)NC(=O)Nc2c3c(cc4c2CCC4)CCC3)cc1CN(C)C [Example 15, 3-((dimethylamino)methyl)-N-((1,2,3,5,6,7-hexahydro-s-indacen-4-yl)carbamoyl)-4-isopropoxybenzenesulfonamide] as the molecule, how does the inhibition at 1 µM (NLRP3 [1]; [4]) read?
Its inhibition at 1 µM is > 80%.

Which inhibition at 1 µM (NLRP3 [1]; [4]) does the source give for COc1c(F)cc(S(=O)(=O)NC(=O)Nc2c3c(cc4c2CCC4)CCC3)cc1CN(C)C [Example 16, 3-((dimethylamino)methyl)-5-fluoro-N-((1,2,3,5,6,7-hexahydro-s-indacen-4-yl)carbamoyl)-4-methoxybenzenesulfonamide] here?
Its inhibition at 1 µM is 20 to 80%.

For CN(C)Cc1cccc(S(=O)(=O)NC(=O)Nc2c3c(cc4c2CCC4)CCC3)c1[N+](=O)[O-] [Example 18, 3-((dimethylamino)methyl)-N-((1,2,3,5,6,7-hexahydro-s-indacen-4-yl)carbamoyl)-2-nitrobenzenesulfonamide], which inhibition at 10 µM (NLRP3 [2]) is on record?
The inhibition at 10 µM was ≥ 70%.

And the inhibition at 1 µM (NLRP3 [1]; [4])?
Its inhibition at 1 µM is > 80%.

With COc1cc(F)c(S(=O)(=O)NC(=O)Nc2c3c(cc4c2CCC4)CCC3)cc1CN(C)C [Example 20, 5-((dimethylamino)methyl)-2-fluoro-N-((1,2,3,5,6,7-hexahydro-s-indacen-4-yl)carbamoyl)-4-methoxybenzenesulfonamide] as the molecule, how does the inhibition at 10 µM (NLRP3 [2]) read?
Its inhibition at 10 µM is ≥ 70%.

What about the inhibition at 1 µM (NLRP3 [1]; [4]) of the same molecule?
The inhibition at 1 µM was > 80%.

What does the source list for CN(C)Cc1c(F)ccc(S(=O)(=O)NC(=O)Nc2c3c(cc4c2CCC4)CCC3)c1F [Example 23, 3-((dimethylamino)methyl)-2,4-difluoro-N-((1,2,3,5,6,7-hexahydro-s-indacen-4-yl)carbamoyl)benzenesulfonamide]?
inhibition at 10 µM (NLRP3 [2]): ≥ 70%; inhibition at 1 µM (NLRP3 [1]; [4]): > 80%

With CN(C)Cc1cccc(S(=O)(=O)NC(=O)Nc2c3c(cc4c2CCC4)CCC3)c1F [Example 24, 3-((dimethylamino)methyl)-2-fluoro-N-((1,2,3,5,6,7-hexahydro-s-indacen-4-yl)carbamoyl)benzenesulfonamide] as the molecule, how does the inhibition at 10 µM (NLRP3 [2]) read?
The inhibition at 10 µM was ≥ 70%.

And the inhibition at 1 µM (NLRP3 [1]; [4])?
The inhibition at 1 µM was > 80%.

What does the source list for CN(C)Cc1ccc(F)c(S(=O)(=O)NC(=O)Nc2c3c(cc4c2CCC4)CCC3)c1F [Example 25, 3-((dimethylamino)methyl)-2,6-difluoro-N-((1,2,3,5,6,7-hexahydro-s-indacen-4-yl)carbamoyl)benzenesulfonamide]?
inhibition at 10 µM (NLRP3 [2]): ≥ 70%; inhibition at 1 µM (NLRP3 [1]; [4]): > 80%

For COc1ccc(S(=O)(=O)NC(=O)Nc2c3c(cc4c2CCC4)CCC3)c(Cl)c1CN(C)C [Example 28, 2-chloro-3-((dimethylamino)methyl)-N-((1,2,3,5,6,7-hexahydro-s-indacen-4-yl)carbamoyl)-4-methoxybenzenesulfonamide], which inhibition at 1 µM (NLRP3 [1]; [4]) is on record?
Its inhibition at 1 µM is > 80%.

What does the source list for CN1CCc2ccc(S(=O)(=O)NC(=O)Nc3c4c(cc5c3CCC5)CCC4)cc2C1 [Example 29, N-((1,2,3,5,6,7-hexahydro-s-indacen-4-yl)carbamoyl)-2-methyl-1,2,3,4-tetrahydroisoquinoline-7-sulfonamide]?
concentration at 120 min ([3]; brain after cardiac perfusion, read-out: brain drug concentration at 120 min): 197 ng/mL; half-life ([3]; plasma): 99 min; AUC ([3]; plasma, read-out: area under the curve (AUC) from 1 to 120 min): 14900 ng·h/mL
